Drawing on patent US20240116985A1, “STAPLED PEPTIDES AND METHODS THEREOF” (priority 2020, published 2024), this text covers IC50 for eleven compounds.

Assay [1] addresses T1, full-length beta-Catenin (Uniprot ID P35222) (Homo sapiens, UniProt P35222).
T1 construct: 10 nM full-length beta-Catenin (Uniprot ID P35222)
T1 sequence (P35222 1-781): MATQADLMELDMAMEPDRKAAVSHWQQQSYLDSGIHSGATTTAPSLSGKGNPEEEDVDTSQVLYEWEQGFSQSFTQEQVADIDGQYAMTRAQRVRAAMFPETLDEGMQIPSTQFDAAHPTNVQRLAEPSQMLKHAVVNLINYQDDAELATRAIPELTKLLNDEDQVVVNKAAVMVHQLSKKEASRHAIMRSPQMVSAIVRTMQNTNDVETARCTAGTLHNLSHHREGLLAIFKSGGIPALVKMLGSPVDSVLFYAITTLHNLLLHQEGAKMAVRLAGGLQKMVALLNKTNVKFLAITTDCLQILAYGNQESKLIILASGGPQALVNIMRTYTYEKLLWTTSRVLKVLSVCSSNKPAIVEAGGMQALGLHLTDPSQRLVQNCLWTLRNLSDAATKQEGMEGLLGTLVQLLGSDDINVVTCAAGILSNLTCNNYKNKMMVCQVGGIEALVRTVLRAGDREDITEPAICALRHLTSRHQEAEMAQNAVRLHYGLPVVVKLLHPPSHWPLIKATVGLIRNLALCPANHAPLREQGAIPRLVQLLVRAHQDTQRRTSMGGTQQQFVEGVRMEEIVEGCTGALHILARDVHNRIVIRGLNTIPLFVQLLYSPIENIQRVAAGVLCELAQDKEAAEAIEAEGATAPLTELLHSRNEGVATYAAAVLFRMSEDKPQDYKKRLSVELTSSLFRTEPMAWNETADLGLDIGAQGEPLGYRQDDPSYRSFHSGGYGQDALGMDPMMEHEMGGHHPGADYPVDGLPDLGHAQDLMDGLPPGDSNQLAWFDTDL
Kind of assay: Fluorescence polarization IC50 (beta-catenin / 5FAM-TCF4 10-53 competition). It counts as binding. In general terms: Polarisation of emitted light reports the rotation of a fluorescent probe.

The target in assay [2] is T2, beta-catenin/TCF4 engagement (Homo sapiens, UniProt P35222).
T2 construct: expressed in transfected cells; host or cells: HEK293
T2 sequence (P35222 1-781): T1 sequence (P35222 1-781)
Briefly: Nano-BRET target engagement assay (B-cat-Halo & TCF4-Luc in HEK293 cells). It counts as cell-based. As to conditions: read-out: NanoBRET Abs IC50. In general terms: Bioluminescence resonance energy transfer reports proximity on the nanometre scale.

The mark [3] stands for this setting: fluorescence polarization; read-out: beta-Catenin FP IC50.

Read-outs that look alike come from different tables or passages of the source.

Turning to `CC(=O)N1CCC[C@]12CC=CCCCC1(CCCC=CCCCOC(=O)N3CC[C@@](C(=O)N[C@@H](Cc4ccsc4)C(=O)N[C@@H](Cc4ccc(Cl)c(Cl)c4)C(=O)N[C@@H](CCC(N)=O)C(N)=O)(C3)NC(=O)[C@H](CC(N)=O)NC(=O)[C@H](Cc3ccccc3)NC(=O)[C@H](C)NC(=O)[C@H](C)NC(=O)[C@H](CC(=O)O)NC(=O)[C@H](CC(=O)O)NC1=O)NC(=O)[C@H](CC(C)(C)C)NC(=O)[C@H](CC(=O)O)NC2=O` (stereo partly drawn) [I-2182, Ac-PL3-Asp-Npg-B5-Asp-Asp-Ala-Ala-Phe-Asn-PyrS2-3Thi-34C1F-Gln-NH2], the concentration for half-maximal inhibition (IC50) was 0.005 µM in assay [1] (setting [3]) and 11.1 µM in assay [2].

Consider `CC(=O)N1CCC[C@]12CC=CCCCC1(CCCC=CCCCOC(=O)N3CC[C@@](C(=O)N[C@@H](Cc4ccsc4)C(=O)N[C@@H](Cc4ccc(Cl)c(Cl)c4)C(=O)N[C@@H](CCC(N)=O)C(N)=O)(C3)NC(=O)[C@H](CC(C)C)NC(=O)[C@H](Cc3ccccc3)NC(=O)[C@H](C)NC(=O)[C@H](C)NC(=O)[C@H](CC(=O)O)NC(=O)[C@H](CC(=O)O)NC1=O)NC(=O)[C@H](CC(C)(C)C)NC(=O)[C@H](CC(=O)O)NC2=O` (stereo partly drawn) [I-2183, Ac-PL3-Asp-Npg-B5-Asp-Asp-Ala-Ala-Phe-Leu-PyrS2-3Thi-34C1F-Gln-NH2], for which the IC50 in assay [1] (setting [3]) was 0.005 µM; in assay [2], 5 µM.

For the compound `CC(=O)N1CCC[C@]12CC=CCCCC1(CCCC=CCCCOC(=O)N3CC[C@@](C(=O)N[C@@H](Cc4ccsc4)C(=O)N[C@@H](Cc4csc5ccccc45)C(=O)N[C@@H](CCC(N)=O)C(N)=O)(C3)NC(=O)[C@H](CC(C)C)NC(=O)[C@@H](Cc3cccc(S(=O)(=O)F)c3)NC(=O)[C@H](C)NC(=O)[C@H](C)NC(=O)[C@H](CN(CC(=O)O)CC(F)(F)F)NC(=O)[C@H](CC(=O)O)NC1=O)NC(=O)[C@H](CC(C)(C)C)NC(=O)[C@H](CC(=O)O)NC2=O` (stereo partly drawn) [I-2185, Ac-PL3-Asp-Npg-B5-Asp-TfeGA-Ala-Ala-3SO2F-Leu-PyrS2-3Thi-BztA-Gln-NH2], the values for the IC50 in assay [1] (read-out: beta-Catenin FP IC50; fluorescence polarization) and in assay [2] were 0.042 µM and 6.1 µM, respectively.

Consider `CC(=O)N1CCC[C@]12CC=CCCCC1(CCCC=CCCCOC(=O)N3CC[C@@](C(=O)N[C@@H](Cc4ccsc4)C(=O)N[C@@H](Cc4csc5ccccc45)C(=O)NC(CCCCNC(=O)c4ccc5c(c4)B(O)OC5)C(N)=O)(C3)NC(=O)[C@H](CC(C)C)NC(=O)[C@H](Cc3ccccc3)NC(=O)[C@H](C)NC(=O)[C@H](C)NC(=O)[C@H](CN(CC(=O)O)CC(F)(F)F)NC(=O)[C@H](CC(=O)O)NC1=O)NC(=O)[C@H](CC(C)(C)C)NC(=O)[C@H](CC(=O)O)NC2=O` (stereo partly drawn) [I-2187, Ac-PL3-Asp-Npg-B5-Asp-TfeGA-Ala-Ala-Phe-Leu-PyrS2-3Thi-BztA-BnBoroleK-NH2], for which the half-maximal inhibitory concentration (IC50) was 0.028 µM in assay [1] (read-out: beta-Catenin FP IC50) and 10.8 µM in assay [2].

Consider `CC(=O)N1CCC[C@]12CC=CCCCC1(CCCC=CCCCOC(=O)N3CC[C@@](C(=O)N[C@@H](Cc4ccsc4)C(=O)N[C@@H](Cc4csc5ccccc45)C(=O)N[C@@H](C)C(N)=O)(C3)NC(=O)[C@H](CC(C)C)NC(=O)[C@H](Cc3ccccc3)NC(=O)[C@H](C)NC(=O)[C@H](CC(=O)N(C)C)NC(=O)[C@H](Cc3cccc(C(=O)O)c3)NC(=O)[C@H](CC(=O)O)NC1=O)NC(=O)[C@H](CC(C)(C)C)NC(=O)[C@H](CC(=O)O)NC2=O` (stereo partly drawn) [I-2188, Ac-PL3-Asp-Npg-B5-Asp-3COOHF-Me2Asn-Ala-Phe-Leu-PyrS2-3Thi-BztA-Ala-NH2], for which the IC50 in assay [1] (setting [3]) was found to be 0.011 µM; in assay [2] it was 7.6 µM.

Turning to `CCCC[C@@H]1NC(=O)[C@H](Cc2cccc(C(=O)O)c2)NC(=O)[C@H](CC(=O)O)NC(=O)C2(CCCC=CCCCOC(=O)N3CC[C@@](C(=O)N[C@@H](Cc4ccsc4)C(=O)N[C@@H](Cc4csc5ccccc45)C(=O)N[C@H](C(N)=O)C(C)C)(C3)NC(=O)[C@H](CC(C)C)NC(=O)[C@H](Cc3ccccc3)NC(=O)[C@H](C)NC1=O)CCCC=CC[C@]1(CCCN1C(C)=O)C(=O)N[C@@H](CC(=O)O)C(=O)N[C@@H](CC(C)(C)C)C(=O)N2` (stereo partly drawn) [I-2189, Ac-PL3-Asp-Npg-B5-Asp-3COOHF-nLeu-Ala-Phe-Leu-PyrS2-3Thi-BztA-Val-NH2], the results for the concentration for half-maximal inhibition (IC50) in assay [1] (setting [3]) and in assay [2] were 0.083 µM and 33.4 µM, respectively.

Turning to `CC(=O)N1CCC[C@]12CC=CCCCC1(CCCC=CCCCOC(=O)N3CC[C@@](C(=O)N[C@@H](Cc4ccsc4)C(=O)N[C@@H](Cc4csc5ccccc45)C(=O)N[C@H](C(N)=O)C(C)C)(C3)NC(=O)[C@H](CC(C)C)NC(=O)[C@H](Cc3ccccc3)NC(=O)[C@H](C)NC(=O)[C@H](CO)NC(=O)[C@H](Cc3cccc(C(=O)O)c3)NC(=O)[C@H](CC(=O)O)NC1=O)NC(=O)[C@H](CC(C)(C)C)NC(=O)[C@H](CC(=O)O)NC2=O` (stereo partly drawn) [I-2190, Ac-PL3-Asp-Npg-B5-Asp-3COOHF-Ser-Ala-Phe-Leu-PyrS2-3Thi-BztA-Val-NH2], the half-inhibitory concentration (IC50) in assay [1] (setting [3]) was 0.028 µM; in assay [2] it was 33.4 µM.

As to `CC(=O)N1CCC[C@]12CC=CCCCC1(CCCC=CCCCOC(=O)N3CC[C@@](C(=O)N[C@@H](Cc4ccsc4)C(=O)N[C@@H](Cc4csc5ccccc45)C(=O)N[C@H](C(N)=O)C(C)C)(C3)NC(=O)[C@H](CC(C)C)NC(=O)[C@H](Cc3ccccc3)NC(=O)[C@H](C)NC(=O)[C@H](CC(=O)N(C)C)NC(=O)[C@H](Cc3cccc(C(=O)O)c3)NC(=O)[C@H](CC(=O)O)NC1=O)NC(=O)[C@H](CC(C)(C)C)NC(=O)[C@H](CC(=O)O)NC2=O` (stereo partly drawn) [I-2191, Ac-PL3-Asp-Npg-B5-Asp-3COOHF-Me2Asn-Ala-Phe-Leu-PyrS2-3Thi-BztA-Val-NH2], the IC50 is 0.016 µM in assay [1] (setting [3]) and 29.5 µM in assay [2].

On to `CC(=O)N1CCC[C@]12CC=CCCCC1(CCCC=CCCCOC(=O)N3CC[C@@](C(=O)N[C@@H](Cc4ccsc4)C(=O)N[C@@H](Cc4csc5ccccc45)C(=O)N[C@@H](CC(C)(C)C)C(N)=O)(C3)NC(=O)[C@H](CC(C)C)NC(=O)[C@H](Cc3ccccc3)NC(=O)[C@H](C)NC(=O)[C@H](CCC(N)=O)NC(=O)[C@H](Cc3cccc(C(=O)O)c3)NC(=O)[C@H](CC(=O)O)NC1=O)NC(=O)[C@H](CC(C)(C)C)NC(=O)[C@H](CC(=O)O)NC2=O` (stereo partly drawn) [I-2192, Ac-PL3-Asp-Npg-B5-Asp-3COOHF-Gln-Ala-Phe-Leu-PyrS2-3Thi-BztA-Npg-NH2], for which the IC50 in assay [1] (setting [3]) came out at 0.022 µM; in assay [2], 16.1 µM.

Regarding `CCCC[C@@H]1NC(=O)[C@H](Cc2cccc(C(=O)O)c2)NC(=O)[C@H](CC(=O)O)NC(=O)C2(CCCC=CCCCOC(=O)N3CC[C@@](C(=O)N[C@@H](Cc4ccsc4)C(=O)N[C@@H](Cc4csc5ccccc45)C(=O)N[C@@H](CC(C)(C)C)C(N)=O)(C3)NC(=O)[C@H](CC(C)C)NC(=O)[C@H](Cc3ccccc3)NC(=O)[C@H](C)NC1=O)CCCC=CC[C@]1(CCCN1C(C)=O)C(=O)N[C@@H](CC(=O)O)C(=O)N[C@@H](CC(C)(C)C)C(=O)N2` (stereo partly drawn) [I-2193, Ac-PL3-Asp-Npg-B5-Asp-3COOHF-nLeu-Ala-Phe-Leu-PyrS2-3Thi-BztA-Npg-NH2], the values for the IC50 in assay [1] (setting [3]) and in assay [2] were 0.164 µM and 39.9 µM, respectively.

On to `CC(=O)N1CCC[C@]12CC=CCCCC1(CCCC=CCCCOC(=O)N3CC[C@@](C(=O)N[C@@H](Cc4ccsc4)C(=O)N[C@@H](Cc4csc5ccccc45)C(=O)N[C@@H](CC(C)(C)C)C(N)=O)(C3)NC(=O)[C@H](CC(C)C)NC(=O)[C@H](Cc3ccccc3)NC(=O)[C@H](C)NC(=O)C(C)(C)NC(=O)[C@H](Cc3cccc(C(=O)O)c3)NC(=O)[C@H](CC(=O)O)NC1=O)NC(=O)[C@H](CC(C)(C)C)NC(=O)[C@H](CC(=O)O)NC2=O` (stereo partly drawn) [I-2194, Ac-PL3-Asp-Npg-B5-Asp-3COOHF-Aib-Ala-Phe-Leu-PyrS2-3Thi-BztA-Npg-NH2], for which the IC50 in assay [1] (setting [3]) stood at 0.091 µM; in assay [2] it was 8.8 µM.

As a reminder, the IC50 is the concentration needed to halve the response being measured.
